This is an account of results in ChEMBL document CHEMBL1201862, “PubChem BioAssay data set” (2004).

Assay [1] concerns the target Nuclear receptor subfamily 5 group A member 2 (Homo sapiens, UniProt O00482). Type of assay: functional, cell-based.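 Also: HEK293T cells transfected with LRH-1 and a StAR promoter luciferase reporter; potency for inhibitors that lower LRH-1 driven reporter light.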
Assay [2] can be described thus: Counterscreen for activators of the function of SWI/SNF related, matrix associated, actin dependent regulator of chromatin, subfamily a, member 2 (SMARCA2, BRM): Luminescence-based cell-based high throughput dose response assay to identify non-selective compounds using the VP16 reporter assay. Type of assay: functional.
Assay [3] concerns HEK293. The assay can be described thus: SAR Analysis of small molecule inhibitors of T-cell specific antigen receptor-induced NF-kB activation in a HEK-293T cell line using a luminescence assay - Set 2. [Related pubchem assays (depositor defined):AID435003, AID435012, AID489026]. Type of assay: functional, cell-based. The note with it: Homo sapiens.
The target of assay [4] is T1, Microphthalmia-associated transcription factor (Homo sapiens, UniProt O75030).
T1 sequence (O75030 whole entry): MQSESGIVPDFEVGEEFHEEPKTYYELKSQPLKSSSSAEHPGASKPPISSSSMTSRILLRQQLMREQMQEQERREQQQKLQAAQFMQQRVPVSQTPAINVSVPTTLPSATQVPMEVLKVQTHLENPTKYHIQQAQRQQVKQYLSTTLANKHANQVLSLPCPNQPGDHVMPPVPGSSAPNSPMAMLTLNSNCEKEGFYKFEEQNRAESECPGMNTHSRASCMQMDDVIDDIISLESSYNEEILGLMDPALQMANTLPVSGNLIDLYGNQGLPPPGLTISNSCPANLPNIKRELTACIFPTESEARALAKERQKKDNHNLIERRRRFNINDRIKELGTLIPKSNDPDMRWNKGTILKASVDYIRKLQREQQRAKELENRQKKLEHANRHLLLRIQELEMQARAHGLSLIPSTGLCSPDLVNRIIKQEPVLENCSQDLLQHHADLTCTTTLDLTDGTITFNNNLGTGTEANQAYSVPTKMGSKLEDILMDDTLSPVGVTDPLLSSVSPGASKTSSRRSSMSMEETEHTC
As to the kind of experiment: TRPM1 promoter luciferase signal decrease, dose response, MITF inhibitor project, cell-based, SK-MEL-5, cherry-picked, set 3 (AID 493073).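 Also: SK-MEL-5 melanoma cells with luciferase driven by the MITF target TRPM1 promoter.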 Type of assay: functional.

The target in assay [5] is Sphingosine 1-phosphate receptor 1 (Homo sapiens, UniProt P21453). In kind it is functional.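 Also: Tango beta-arrestin reporter U2OS cells stimulated with S1P near its EC80; inhibitor potency meaning antagonism of receptor activation by the natural agonist.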
The next assay deals with Paired box protein Pax-8 (Homo sapiens, UniProt Q06710). The assay can be described thus: inhibitors of PAX8-driven TPO luciferase reporter, dose response, RMG-I cells, cherry-pick (AID 687027).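 Also: luciferase reporter driven by Pax8 target thyroperoxidase promoter measured by SteadyGlo luminescence.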 Type of assay: functional, cell-based.
Assay [6] can be described thus: StAR promoter reporter inhibition counter-screen, dose response, counter-screen for LRH-1 inverse agonist project, cell-based, luminescence, luciferase reporter (AID 651969). Type of assay: functional. A general note: A counterscreen serves to expose hits that act by an unwanted route or on another target.
The target in assay [7] is T2, Sphingosine 1-phosphate receptor 4 (Homo sapiens, UniProt O95977).
T2 sequence (O95977 whole entry): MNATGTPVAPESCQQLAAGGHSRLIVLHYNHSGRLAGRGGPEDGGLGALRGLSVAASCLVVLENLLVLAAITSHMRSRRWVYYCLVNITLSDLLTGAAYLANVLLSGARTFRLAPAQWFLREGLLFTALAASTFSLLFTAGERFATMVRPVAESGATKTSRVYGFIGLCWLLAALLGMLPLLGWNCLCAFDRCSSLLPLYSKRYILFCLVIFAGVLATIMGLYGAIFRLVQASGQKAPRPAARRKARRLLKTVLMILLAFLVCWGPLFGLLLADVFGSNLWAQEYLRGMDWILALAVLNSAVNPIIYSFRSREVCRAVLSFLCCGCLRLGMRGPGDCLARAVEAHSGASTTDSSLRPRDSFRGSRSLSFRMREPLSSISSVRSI
As to the kind of experiment: Fluorescence dose response cell-based high throughput screening assay for antagonists of the Sphingosine 1-Phosphate Receptor 4 (S1P4). [Related pubchem assays: 1524 (Confirmation in triplicates.), 1510 (Primary screen.)]. In kind it is functional.

The subject of assay [8] is HEK293. The assay can be described thus: cytotoxicity in HEK293T NF-kB-Luc cells, SAR follow-up, cytotoxicity control for NF-kB activator project, cell-based, resazurin fluorescence (AID 493251). In kind it is functional. The note with it: Homo sapiens. On the technique in general: Resazurin is reduced to fluorescent resorufin, in cell work by metabolically active cells.

A short description of assay [9]: NIH-3T3 fibroblast cytotoxicity, dose response, cytotoxicity control, cell-based, fluorescence, Alamar Blue, secondary assay (AID 2327).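 Also: NIH-3T3 mouse fibroblasts cultured with fluconazole at 8 µg/mL.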 Type of assay: functional.
For another assay, the target named is Steroidogenic factor 1 (Homo sapiens, UniProt Q13285). As to the kind of experiment: Counterscreen for inverse agonists of the liver receptor homolog-1 (LRH-1; NR5A2): Luminescence-based cell-based high throughput dose response assay to identify inverse agonists of the Steroidogenic Factor 1 Nuclear Receptor (SF1; NR5A1). Type of assay: functional.
For assay [10], the target named is SWI/SNF-related matrix-associated actin-dependent regulator of chromatin subfamily A member 2 (Homo sapiens, UniProt P51531). As to the kind of experiment: Luminescence-based cell-based high throughput dose response assay to identify activators of the function of SWI/SNF related, matrix associated, actin dependent regulator of chromatin, subfamily a, member 2 (SMARCA2, BRM). Type of assay: functional.

Assay [11] is described as follows: C. albicans growth with fluconazole, confirmation, fluorescence, retest (AID 2467). Type of assay: functional, cell-based.
For another assay, the system named is Jurkat. As to the kind of experiment: SAR Analysis of small molecule inhibitors of T-cell specific antigen receptor-induced NF-kB activation in a Jurkat cell line using a luminescence assay - Set 2. [Related pubchem assays (depositor defined):AID435003, AID435012, AID465]. Type of assay: functional, cell-based. The note with it: Homo sapiens.
Another assay has as its target Phospholipase A2 (Homo sapiens, UniProt P04054). Type of assay: functional.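 Also: confirmatory dose-response counterscreen on phospholipase A2, testing hits that came from an ultra-high-throughput screen for ATG4B inhibitors.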
The next assay concerns the target Cysteine protease ATG4B (Homo sapiens, UniProt Q9Y4P1). In kind it is functional.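 Also: Fluorescence-based dose-response confirmation assay measuring inhibition of ATG4B activity.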

The structures appear in SMILES notation. Calls of active or inactive are those of the source.

Cysteine protease ATG4B, sequence (Q9Y4P1 whole entry): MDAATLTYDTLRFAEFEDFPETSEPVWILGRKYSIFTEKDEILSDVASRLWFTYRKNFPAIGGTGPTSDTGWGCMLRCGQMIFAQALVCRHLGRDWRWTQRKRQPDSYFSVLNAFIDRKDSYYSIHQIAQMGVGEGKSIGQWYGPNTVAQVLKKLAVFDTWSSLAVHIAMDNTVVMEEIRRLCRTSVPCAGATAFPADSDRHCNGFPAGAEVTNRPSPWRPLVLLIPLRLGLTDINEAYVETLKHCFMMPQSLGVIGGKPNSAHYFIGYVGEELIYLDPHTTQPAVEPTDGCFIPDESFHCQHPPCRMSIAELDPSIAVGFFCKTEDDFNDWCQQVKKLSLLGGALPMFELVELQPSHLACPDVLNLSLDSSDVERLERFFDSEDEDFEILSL
SWI/SNF-related matrix-associated actin-dependent regulator of chromatin subfamily A member 2, sequence (P51531 whole entry): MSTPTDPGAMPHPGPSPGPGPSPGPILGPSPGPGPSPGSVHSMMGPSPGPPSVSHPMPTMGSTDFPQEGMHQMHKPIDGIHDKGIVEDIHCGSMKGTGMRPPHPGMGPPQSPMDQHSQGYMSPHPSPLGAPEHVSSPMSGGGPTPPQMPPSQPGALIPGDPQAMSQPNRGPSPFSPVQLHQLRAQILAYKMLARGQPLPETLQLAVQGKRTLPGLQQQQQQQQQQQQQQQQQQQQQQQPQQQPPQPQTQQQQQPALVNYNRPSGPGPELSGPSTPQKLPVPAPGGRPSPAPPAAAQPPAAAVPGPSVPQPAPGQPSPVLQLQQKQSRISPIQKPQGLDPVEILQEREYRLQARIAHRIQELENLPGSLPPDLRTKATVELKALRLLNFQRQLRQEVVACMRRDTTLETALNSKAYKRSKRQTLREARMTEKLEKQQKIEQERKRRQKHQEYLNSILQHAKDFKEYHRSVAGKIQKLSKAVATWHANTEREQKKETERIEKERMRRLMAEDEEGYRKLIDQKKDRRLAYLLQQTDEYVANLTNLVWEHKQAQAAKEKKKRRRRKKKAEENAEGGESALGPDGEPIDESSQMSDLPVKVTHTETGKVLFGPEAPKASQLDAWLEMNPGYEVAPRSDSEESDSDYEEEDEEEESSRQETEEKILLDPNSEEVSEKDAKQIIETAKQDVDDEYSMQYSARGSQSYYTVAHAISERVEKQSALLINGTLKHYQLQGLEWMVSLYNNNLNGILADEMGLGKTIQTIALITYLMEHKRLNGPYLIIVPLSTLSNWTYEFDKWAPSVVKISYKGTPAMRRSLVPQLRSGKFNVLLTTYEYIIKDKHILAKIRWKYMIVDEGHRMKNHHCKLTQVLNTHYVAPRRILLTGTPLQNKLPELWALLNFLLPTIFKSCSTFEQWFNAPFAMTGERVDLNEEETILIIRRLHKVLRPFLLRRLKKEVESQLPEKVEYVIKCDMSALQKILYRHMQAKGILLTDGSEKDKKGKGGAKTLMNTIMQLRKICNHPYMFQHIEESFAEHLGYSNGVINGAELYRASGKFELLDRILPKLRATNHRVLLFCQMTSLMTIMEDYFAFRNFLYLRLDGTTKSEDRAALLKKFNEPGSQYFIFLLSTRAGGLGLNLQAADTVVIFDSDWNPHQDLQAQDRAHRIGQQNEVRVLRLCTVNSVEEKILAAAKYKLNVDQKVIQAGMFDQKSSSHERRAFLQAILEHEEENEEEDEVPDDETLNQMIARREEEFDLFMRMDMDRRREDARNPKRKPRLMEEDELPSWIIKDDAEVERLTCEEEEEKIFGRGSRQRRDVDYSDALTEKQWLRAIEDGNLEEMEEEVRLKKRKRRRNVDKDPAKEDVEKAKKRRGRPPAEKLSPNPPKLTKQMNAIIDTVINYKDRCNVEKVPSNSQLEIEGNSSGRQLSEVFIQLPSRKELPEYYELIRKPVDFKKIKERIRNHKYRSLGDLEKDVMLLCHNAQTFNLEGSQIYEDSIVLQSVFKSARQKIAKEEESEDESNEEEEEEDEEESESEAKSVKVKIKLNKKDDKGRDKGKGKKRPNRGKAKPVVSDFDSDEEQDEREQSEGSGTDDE
Phospholipase A2, sequence (P04054 whole entry): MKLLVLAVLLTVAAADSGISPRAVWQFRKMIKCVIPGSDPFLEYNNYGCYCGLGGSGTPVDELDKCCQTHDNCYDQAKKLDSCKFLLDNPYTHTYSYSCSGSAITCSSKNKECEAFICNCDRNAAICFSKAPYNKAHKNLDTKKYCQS
Sphingosine 1-phosphate receptor 1, sequence (P21453 whole entry): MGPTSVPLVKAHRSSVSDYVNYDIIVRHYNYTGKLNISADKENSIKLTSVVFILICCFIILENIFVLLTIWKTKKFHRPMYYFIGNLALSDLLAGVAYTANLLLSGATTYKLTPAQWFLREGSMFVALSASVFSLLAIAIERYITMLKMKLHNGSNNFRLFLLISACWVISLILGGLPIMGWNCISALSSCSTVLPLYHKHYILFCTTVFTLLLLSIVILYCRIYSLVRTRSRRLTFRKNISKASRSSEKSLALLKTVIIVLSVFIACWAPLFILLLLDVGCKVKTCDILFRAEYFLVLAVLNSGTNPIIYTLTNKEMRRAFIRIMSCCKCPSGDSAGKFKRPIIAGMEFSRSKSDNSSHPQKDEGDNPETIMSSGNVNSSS
Steroidogenic factor 1, sequence (Q13285 whole entry): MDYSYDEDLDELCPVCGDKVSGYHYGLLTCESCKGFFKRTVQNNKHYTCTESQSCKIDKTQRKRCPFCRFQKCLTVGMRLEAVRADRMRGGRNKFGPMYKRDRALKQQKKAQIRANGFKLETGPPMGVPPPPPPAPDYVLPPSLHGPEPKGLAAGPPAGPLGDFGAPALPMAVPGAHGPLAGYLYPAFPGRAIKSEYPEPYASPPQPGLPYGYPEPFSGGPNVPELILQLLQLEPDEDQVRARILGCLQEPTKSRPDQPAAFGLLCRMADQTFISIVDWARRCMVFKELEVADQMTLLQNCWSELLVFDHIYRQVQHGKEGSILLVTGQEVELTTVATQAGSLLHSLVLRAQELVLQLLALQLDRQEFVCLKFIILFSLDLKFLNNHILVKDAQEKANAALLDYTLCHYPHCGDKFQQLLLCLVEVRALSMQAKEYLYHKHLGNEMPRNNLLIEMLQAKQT
Paired box protein Pax-8, sequence (Q06710 whole entry): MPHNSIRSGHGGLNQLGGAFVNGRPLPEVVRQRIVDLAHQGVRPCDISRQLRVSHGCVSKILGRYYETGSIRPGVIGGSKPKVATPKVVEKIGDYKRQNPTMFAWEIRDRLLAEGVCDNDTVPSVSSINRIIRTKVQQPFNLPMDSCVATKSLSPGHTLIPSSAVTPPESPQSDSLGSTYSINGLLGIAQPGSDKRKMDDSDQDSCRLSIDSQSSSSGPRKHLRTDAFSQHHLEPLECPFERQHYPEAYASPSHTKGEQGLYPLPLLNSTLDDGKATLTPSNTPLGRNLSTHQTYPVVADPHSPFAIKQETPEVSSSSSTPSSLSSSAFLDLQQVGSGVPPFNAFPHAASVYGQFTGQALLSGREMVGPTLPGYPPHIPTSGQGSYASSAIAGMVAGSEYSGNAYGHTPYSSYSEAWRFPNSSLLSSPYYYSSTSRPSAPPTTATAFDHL
Nuclear receptor subfamily 5 group A member 2, sequence (O00482 whole entry): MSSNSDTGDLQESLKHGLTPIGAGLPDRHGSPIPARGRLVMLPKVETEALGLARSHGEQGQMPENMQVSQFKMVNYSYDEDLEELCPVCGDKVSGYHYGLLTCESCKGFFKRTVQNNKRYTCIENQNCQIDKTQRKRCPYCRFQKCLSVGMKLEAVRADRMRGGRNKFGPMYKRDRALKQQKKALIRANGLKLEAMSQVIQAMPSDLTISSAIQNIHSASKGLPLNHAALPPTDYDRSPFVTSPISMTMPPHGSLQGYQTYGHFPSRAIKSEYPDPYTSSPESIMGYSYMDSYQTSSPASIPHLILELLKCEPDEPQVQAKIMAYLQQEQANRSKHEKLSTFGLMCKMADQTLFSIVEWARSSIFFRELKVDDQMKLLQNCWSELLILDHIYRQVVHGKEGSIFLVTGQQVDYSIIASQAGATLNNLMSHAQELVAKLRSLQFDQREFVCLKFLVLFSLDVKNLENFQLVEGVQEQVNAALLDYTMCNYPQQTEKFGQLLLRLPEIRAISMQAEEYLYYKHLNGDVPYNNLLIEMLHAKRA

As for `Cc1cc(NC(=O)c2ccc([N+](=O)[O-])o2)ccc1NC(=O)c1ccco1`, the IC50 is 35.9 µM (inactive) in assay [1]; 27 µM (inactive) in the assay with HEK293 [3]; 11.5 µM (not active) in assay [5]; 35.9 µM (inactive) in assay [6]; 1.87 µM (active) in assay [7]; 42.4 µM (inactive) with HEK293 [8]. For the same compound, the IC50 was 0.766 µM (active) on Steroidogenic factor 1 and 31.1 µM (inactive) in the assay on Jurkat. In addition, the EC50 in [2] was > 91.2 µM (inactive); in [9] it was 4.78 µM (inconclusive); in [10] it was > 91.2 µM (inactive); in assay [11], > 38 µM (not active). Also, the AC50 in assay [4] was 7.8 µM (active); at Paired box protein Pax-8, 5.2 µM (active).

For `CCCCCCCCCCCCCCCCCCNc1ccn(C2OC(COP(=O)(O)OCC3OC(n4cc(F)c(=O)[nH]c4=O)CC3O)C(O)C2O)c(=O)n1` (stereo unspecified), the IC50 was 9.09 µM (active) at Phospholipase A2 and 10.8 µM (active) on Cysteine protease ATG4B.

A word on the IC50: it is the concentration at which inhibition is half-maximal. What is called EC50 is the concentration giving half of the maximal effect. By AC50 is commonly meant the concentration at which the activity in the assay is half-maximal.
